Laboratory results published in patent US20090048301A1 (IMCLONE SYSTEMS INCORPORATED, priority 2003, published 2009).

Tests used:
xenograft models = settings: Cancer Research 62, 3113, 2002; cited from earlier work
[1] = system: A431 human cancer cell line; assay: Sulphorhodamine B (SRB) growth inhibition assay; type: cell-based; settings: A-431, A431 cells, 48 hours, read-out: SRB Assay: μM required to inhibit tumor cell growth by 50% (GI50)
In short: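 A431 cells were seeded at 10,000 cells/well and preincubated 24 h, then exposed for 48 h at 37 °C, 5% CO2 to five log doses from 100 μM to 0.01 μM (final). After TCA fixation, SRB-stained protein was read at 515 nm. Percent growth was set against time-zero and DMSO control OD, and GI50 was taken at the 50% intercept.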

[2] = system: A431, human epidermoid carcinoma cells; assay: Cell cycle analysis (FACS), mitotic arrest in G2/M; type: cell-based; settings: Homo sapiens, A-431, 24 h, read-out: FACS Assay: concentration required to achieve inhibition in FACS assay
In short: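 A431 cells, 500,000/well at treatment, exposed to compounds at 0.01–1 μM final (0.1% DMSO) for 24 h. Ethanol-fixed cells RNase-treated (1 μg/ml, 37° C., 15 min), stained with propidium iodide (50 μg/ml, 30 min, RT). DNA ploidy by flow cytometry; mitotic arrest scored as G2/M accumulation.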

bovine tubulin = assay: In vitro tubulin polymerization assay (turbidity at 340 nm); type: biochemical; settings: 10 μM compound, 30 minute data point, vs 1% DMSO control
In short: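 Percent inhibition derives from turbidity (340 nm) at 30 min relative to 1% DMSO controls, read every minute at 37° C. Polymerization mix: 3 mg/ml bovine tubulin, <3% MAPs, in PIPES pH 7 G-PEM with 1 mM GTP, 1 mM MgCl2, 5% glycerol; enhancers also detectable.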

SMILES	efficacy in xenograft models (xenograft models)	oral activity (xenograft models)	toxicity (xenograft models)	GI50 [1] [µM]	minimal effective concentration [2] [µM]	Tubulin Assay: percent inhibition at 10 μM based on 30 minute data (bovine tubulin) [%]
COc1ccc2[nH]c(C(=O)c3ccccc3)cc2c1 [Compound D64131]	efficacious in xenograft models	orally active	no signs of toxicity	–	–	–
CN(C)c1ccc(Nc2nnc(-c3cccnc3Nc3ccc4c(c3)OCO4)[nH]2)cc1 [Compound 11, Benzo[1,3]dioxol-5-yl-{3-[5-(4-dimethylamino-phenylamino)-4H-[1,2,4]triazol-3-yl]-pyridin-2-yl}-amine]	–	–	–	0.25	10	82
COc1cc(Nc2ncccc2-c2nnc(Nc3ccc(C#N)cc3)[nH]2)cc(OC)c1 [Compound 4, 4-{5-[2-(3,5-Dimethoxy-phenylamino)-pyridin-3-yl]-4H-[1,2,4]triazol-3-ylamino}-benzonitrile]	–	–	–	4	10	32
O=C1CCCN1CCCNc1ncccc1-c1nnc(Nc2ccc3c(c2)OCCO3)o1 [Compound 192, 1-(3-{3-[5-(2,3-Dihydro-benzo[1,4]dioxin-6-ylamino)-[1,3,4]oxadiazol-2-yl]-pyridin-2-ylamino}-propyl)-pyrrolidin-2-one]	–	–	–	0.01	0.1	85
COc1ccc(OC)c(Nc2nnc(-c3cccnc3NCc3ccc4c(c3)OCO4)[nH]2)c1 [Compound 14, Benzo[1,3]dioxol-5-ylmethyl-{3-[5-(2,5-dimethoxy-phenylamino)-4H-[1,2,4]triazol-3-yl]-pyridin-2-yl}-amine]	–	–	–	20	100	24
COc1cccc(Nc2nnc(-c3cccnc3NCc3ccc4c(c3)OCO4)[nH]2)c1 [Compound 13, Benzo[1,3]dioxol-5-ylmethyl-{3-[5-(3-methoxy-phenylamino)-4H-[1,2,4]triazol-3-yl]-pyridin-2-yl}-amine]	–	–	–	2	1	80
COc1cccc(Nc2nnc(-c3cccnc3Nc3cc(OC)cc(OC)c3)o2)c1 [Compound 176, (3,5-Dimethoxy-phenyl)-{3-[5-(3-methoxy-phenylamino)-[1,3,4]oxadiazol-2-yl]-pyridin-2-yl}-amine]	–	–	–	40	10	27
CS(=O)(=O)c1ccc(-c2nnc(-c3cccnc3NCc3ccc4c(c3)OCO4)[nH]2)cc1 [Compound 77, Benzo[1,3]dioxol-5-ylmethyl-{3-[5-(4-methanesulfonyl-phenyl)-4H-[1,2,4]triazol-3-yl]-pyridin-2-yl}-amine]	–	–	–	4.5	10	28
c1cncc(CNc2ncccc2-c2nnc(Nc3ccc4c(c3)OCO4)o2)c1 [Compound 189, {3-[5-(Benzo[1,3]dioxol-5-ylamino)-[1,3,4]oxadiazol-2-yl]-pyridin-2-yl}-pyridin-3-ylmethyl-amine]	–	–	–	0.6	0.1	89
COc1cc(Nc2ncccc2-c2nnc(Nc3ccc4c(c3)OCO4)o2)cc(OC)c1 [Compound 177, {3-[5-(Benzo[1,3]dioxol-5-ylamino)-[1,3,4]oxadiazol-2-yl]-pyridin-2-yl}-(3,5-dimethoxy-phenyl)-amine]	–	–	–	0.04	0.01	45
COc1cc(CNc2ncccc2-c2nnc(Nc3ccc4c(c3)OCO4)o2)cc(OC)c1 [Compound 182, {3-[5-(Benzo[1,3]dioxol-5-ylamino)-[1,3,4]oxadiazol-2-yl]-pyridin-2-yl}-(3,5-dimethoxy-benzyl)-amine]	–	–	–	0.2	1	84
COc1cccc(-c2nnc(-c3cccnc3NCc3cccnc3)[nH]2)c1 [Compound 85, {3-[5-(3-Methoxy-phenyl)-4H-[1,2,4]triazol-3-yl]-pyridin-2-yl}-pyridin-3-ylmethyl-amine]	–	–	–	8	1	61
c1ccc(-c2nnc(Nc3ccc4c(c3)OCCO4)o2)c(NCc2cn[nH]c2)c1 [Compound 223, (2,3-Dihydro-benzo[1,4]dioxin-6-yl)-(5-{2-[(1H-pyrazol-4-ylmethyl)-amino]-phenyl}-[1,3,4]oxadiazol-2-yl)-amine]	–	–	–	1.5	0.1	84
COc1cccc(Nc2nnc(-c3cccnc3NCc3cccnc3)[nH]2)c1 [Compound 25, {3-[5-(3-Methoxy-phenylamino)-4H-[1,2,4]triazol-3-yl]-pyridin-2-yl}-pyridin-3-ylmethyl-amine]	–	–	–	0.5	1	77
COc1cccc(Nc2nnc(-c3ccccc3NCc3ccncc3)[nH]2)c1 [Compound 115, (3-Methoxy-phenyl)-(5-{2-[(pyridin-4-ylmethyl)-amino]-phenyl}-4H-[1,2,4]triazol-3-yl)-amine]	–	–	–	1.5	1	79
c1ccc(-c2nnc(Nc3ccc4c(c3)OCCO4)o2)c(NCc2ccncc2)c1 [Compound 215, (2,3-Dihydro-benzo[1,4]dioxin-6-yl)-(5-{2-[(pyridin-4-ylmethyl)-amino]-phenyl}-[1,3,4]oxadiazol-2-yl)-amine]	–	–	–	10	0.01	100
COc1cc(Nc2nnc(-c3cccnc3Nc3cc(OC)cc(OC)c3)[nH]2)cc(OC)c1 [Compound 1, (3,5-Dimethoxy-phenyl)-{3-[5-(3,5-dimethoxy-phenylamino)-4H-[1,2,4]triazol-3-yl]-pyridin-2-yl}-amine]	–	–	–	5.5	0.1	45
COc1ccc(Nc2nnc(-c3cccnc3NCc3ccc4c(c3)OCO4)[nH]2)cc1 [Compound 54, Benzo[1,3]dioxol-5-ylmethyl-{3-[5-(4-methoxy-phenylamino)-4H-[1,2,4]triazol-3-yl]-pyridin-2-yl}-amine]	–	–	–	7.5	10	38
COc1cccc(Nc2nnc(-c3cccnc3Nc3ccc4c(c3)OCO4)[nH]2)c1 [Compound 7, Benzo[1,3]dioxol-5-yl-{3-[5-(3-methoxy-phenylamino)-4H-[1,2,4]triazol-3-yl]-pyridin-2-yl}-amine]	–	–	–	15	10	47
c1cncc(CNc2ncccc2-c2nnc(Nc3ccc4c(c3)OCO4)[nH]2)c1 [Compound 31, {3-[5-(Benzo[1,3]dioxol-5-ylamino)-4H-[1,2,4]triazol-3-yl]-pyridin-2-yl}-pyridin-3-ylmethyl-amine]	–	–	–	0.25	1	49
COc1cc(Nc2ncccc2-c2nnc(Nc3cc(OC)ccc3OC)[nH]2)cc(OC)c1 [Compound 5, (3,5-Dimethoxy-phenyl)-{3-[5-(2,5-dimethoxy-phenylamino)-4H-[1,2,4]triazol-3-yl]-pyridin-2-yl}-amine]	–	–	–	10	100	20
CN(C)c1ccc(Nc2nnc(-c3cccnc3NCc3ccc4c(c3)OCO4)[nH]2)cc1 [Compound 15, Benzo[1,3]dioxol-5-ylmethyl-{3-[5-(4-dimethylamino-phenylamino)-4H-[1,2,4]triazol-3-yl]-pyridin-2-yl}-amine]	–	–	–	0.2	100	20
COc1ccc(OC)c(Nc2nnc(-c3cccnc3Nc3ccc4cn[nH]c4c3)[nH]2)c1 [Compound 20, {3-[5-(2,5-Dimethoxy-phenylamino)-4H-[1,2,4]triazol-3-yl]-pyridin-2-yl}-(1H-indazol-6-yl)-amine]	–	–	–	0.9	10	44
COc1cccc(Nc2nnc(-c3ccccc3NCc3ccncc3)o2)c1 [Compound 228, (3-Methoxy-phenyl)-(5-{2-[(pyridin-4-ylmethyl)-amino]-phenyl}-[1,3,4]oxadiazol-2-yl)-amine]	–	–	–	2	10	57
CN(C)c1ccc(Nc2nnc(-c3cccnc3Nc3ccc4cn[nH]c4c3)[nH]2)cc1 [Compound 21, (1H-Indazol-6-yl)-{3-[5-(4-dimethylamino-phenylamino)-4H-[1,2,4]triazol-3-yl]-pyridin-2-yl}-amine]	–	–	–	40	100	24
